Assay results published in paper PMC6421522, “Designing Dual Inhibitors of Anaplastic Lymphoma Kinase (ALK) and Bromodomain-4 (BRD4) by Tuning Kinase Selectivity” (Journal of Medicinal Chemistry, 2019).

Assays:
Assay in all cases: KINOMEscan scanEDGE
Assay type in all cases: binding
Conditions in all cases: read-out: % Control (1µM)
[1] = target: T1, ABL1(E255K)-phosphorylated (Homo sapiens, UniProt P00519, E255K)
T1 construct: purchased DiscoveRx KINOMEscan (scanEDGE); Thermo Fisher SelectScreen (Z'-LYTE) for PLK-1
Experimental: (§1) Compound X was assayed at 1 μM in the DiscoveRx KINOMEscan (scanEDGE) assay platform. The results for single-concentration binding interactions are reported as “%Ctrl” (DMSO = 100%Ctrl), where lower numbers indicate stronger hits.

ABL1-nonphosphorylated = target: T2, ABL1-nonphosphorylated (Homo sapiens, UniProt P00519)
T2 construct: purchased DiscoveRx KINOMEscan (scanEDGE); Thermo Fisher SelectScreen (Z'-LYTE) for PLK-1
Experimental: as §1

ADCK3 = target: T3, ADCK3 (Homo sapiens, UniProt Q8NI60)
T3 construct: purchased DiscoveRx KINOMEscan (scanEDGE); Thermo Fisher SelectScreen (Z'-LYTE) for PLK-1
Experimental: as §1

AURKA = target: T4, AURKA (Homo sapiens, UniProt O14965)
T4 construct: purchased DiscoveRx KINOMEscan (scanEDGE); Thermo Fisher SelectScreen (Z'-LYTE) for PLK-1
Experimental: as §1

AURKB = target: T5, AURKB (Homo sapiens, UniProt Q96GD4)
T5 construct: purchased DiscoveRx KINOMEscan (scanEDGE); Thermo Fisher SelectScreen (Z'-LYTE) for PLK-1
Experimental: as §1

AXL = target: T6, AXL (Homo sapiens, UniProt P30530)
T6 construct: purchased DiscoveRx KINOMEscan (scanEDGE); Thermo Fisher SelectScreen (Z'-LYTE) for PLK-1
Experimental: as §1

BRAF = target: T7, BRAF (Homo sapiens, UniProt P15056)
T7 construct: purchased DiscoveRx KINOMEscan (scanEDGE); Thermo Fisher SelectScreen (Z'-LYTE) for PLK-1
Experimental: as §1

BRAF(V600E) = target: T8, BRAF(V600E) (Homo sapiens, UniProt P15056, V600E)
T8 construct: purchased DiscoveRx KINOMEscan (scanEDGE); Thermo Fisher SelectScreen (Z'-LYTE) for PLK-1
Experimental: as §1

CDK11 = target: T9, CDK11 (Homo sapiens, UniProt Q9BWU1)
T9 construct: purchased DiscoveRx KINOMEscan (scanEDGE); Thermo Fisher SelectScreen (Z'-LYTE) for PLK-1
Experimental: as §1

CDK2 = target: T10, CDK2 (Homo sapiens, UniProt P24941)
T10 construct: purchased DiscoveRx KINOMEscan (scanEDGE); Thermo Fisher SelectScreen (Z'-LYTE) for PLK-1
Experimental: as §1

CDK7 = target: T11, CDK7 (Homo sapiens, UniProt P50613)
T11 construct: purchased DiscoveRx KINOMEscan (scanEDGE); Thermo Fisher SelectScreen (Z'-LYTE) for PLK-1
Experimental: as §1

CDK9 = target: T12, CDK9 (Homo sapiens, UniProt P50750)
T12 construct: purchased DiscoveRx KINOMEscan (scanEDGE); Thermo Fisher SelectScreen (Z'-LYTE) for PLK-1
Experimental: as §1

CSNK1G2 = target: T13, CSNK1G2 (Homo sapiens, UniProt P78368)
T13 construct: purchased DiscoveRx KINOMEscan (scanEDGE); Thermo Fisher SelectScreen (Z'-LYTE) for PLK-1
Experimental: as §1

DYRK1B = target: T14, DYRK1B (Homo sapiens, UniProt Q9Y463)
T14 construct: purchased DiscoveRx KINOMEscan (scanEDGE); Thermo Fisher SelectScreen (Z'-LYTE) for PLK-1
Experimental: as §1

EGFR = target: T15, EGFR (Homo sapiens, UniProt P00533)
T15 construct: purchased DiscoveRx KINOMEscan (scanEDGE); Thermo Fisher SelectScreen (Z'-LYTE) for PLK-1
Experimental: as §1

ERK1 = target: T16, ERK1 (Homo sapiens, UniProt P27361)
T16 construct: purchased DiscoveRx KINOMEscan (scanEDGE); Thermo Fisher SelectScreen (Z'-LYTE) for PLK-1
Experimental: as §1

FGFR2 = target: T17, FGFR2 (Homo sapiens, UniProt P21802)
T17 construct: purchased DiscoveRx KINOMEscan (scanEDGE); Thermo Fisher SelectScreen (Z'-LYTE) for PLK-1
Experimental: as §1

FLT3 = target: T18, FLT3 (Homo sapiens, UniProt P36888)
T18 construct: purchased DiscoveRx KINOMEscan (scanEDGE); Thermo Fisher SelectScreen (Z'-LYTE) for PLK-1
Experimental: as §1

GSK3B = target: T19, GSK3B (Homo sapiens, UniProt P49841)
T19 construct: purchased DiscoveRx KINOMEscan (scanEDGE); Thermo Fisher SelectScreen (Z'-LYTE) for PLK-1
Experimental: as §1

JNK3 = target: T20, JNK3 (Homo sapiens, UniProt P53779)
T20 construct: purchased DiscoveRx (DiscoverX)
Experimental: as §1

KIT = target: T21, KIT (Homo sapiens, UniProt P10721)
T21 construct: purchased DiscoveRx (DiscoverX)
Experimental: as §1

KIT(D816V) = target: T22, KIT(D816V) (Homo sapiens, UniProt P10721, D816V)
T22 construct: purchased DiscoveRx KINOMEscan (scanEDGE); Thermo Fisher SelectScreen (Z'-LYTE) for PLK-1
Experimental: as §1

KIT(V559D,T670I) = target: T23, KIT(V559D,T670I) (Homo sapiens, UniProt P10721, T670I/V559D)
T23 construct: purchased DiscoveRx KINOMEscan (scanEDGE); Thermo Fisher SelectScreen (Z'-LYTE) for PLK-1
Experimental: as §1

LKB1 = target: T24, LKB1 (Homo sapiens, UniProt Q15831)
T24 construct: purchased DiscoveRx KINOMEscan (scanEDGE); Thermo Fisher SelectScreen (Z'-LYTE) for PLK-1
Experimental: as §1

MAP3K4 = target: T25, MAP3K4 (Homo sapiens, UniProt Q9Y6R4)
T25 construct: purchased DiscoveRx KINOMEscan (scanEDGE); Thermo Fisher SelectScreen (Z'-LYTE) for PLK-1
Experimental: as §1

MAPKAPK2 = target: T26, MAPKAPK2 (Homo sapiens, UniProt P49137)
T26 construct: purchased DiscoveRx KINOMEscan (scanEDGE); Thermo Fisher SelectScreen (Z'-LYTE) for PLK-1
Experimental: as §1

MKNK1 = target: T27, MKNK1 (Homo sapiens, UniProt Q9BUB5)
T27 construct: purchased DiscoveRx KINOMEscan (scanEDGE); Thermo Fisher SelectScreen (Z'-LYTE) for PLK-1
Experimental: as §1

MLK1 = target: T28, MLK1 (Homo sapiens, UniProt P80192)
T28 construct: purchased DiscoveRx KINOMEscan (scanEDGE); Thermo Fisher SelectScreen (Z'-LYTE) for PLK-1
Experimental: as §1

PCTK1 = target: T29, PCTK1 (Homo sapiens, UniProt Q00536)
T29 construct: purchased DiscoveRx KINOMEscan (scanEDGE); Thermo Fisher SelectScreen (Z'-LYTE) for PLK-1
Experimental: as §1

PDGFRA = target: T30, PDGFRA (Homo sapiens, UniProt P16234)
T30 construct: purchased DiscoveRx KINOMEscan (scanEDGE); Thermo Fisher SelectScreen (Z'-LYTE) for PLK-1
Experimental: as §1

PIK3CG = target: T31, PIK3CG (Homo sapiens, UniProt P48736)
T31 construct: purchased DiscoveRx KINOMEscan (scanEDGE); Thermo Fisher SelectScreen (Z'-LYTE) for PLK-1
Experimental: as §1

PIM3 = target: T32, PIM3 (Homo sapiens, UniProt Q86V86)
T32 construct: purchased DiscoveRx KINOMEscan (scanEDGE); Thermo Fisher SelectScreen (Z'-LYTE) for PLK-1
Experimental: as §1

PRKCE = target: T33, PRKCE (Homo sapiens, UniProt Q02156)
T33 construct: purchased DiscoveRx KINOMEscan (scanEDGE); Thermo Fisher SelectScreen (Z'-LYTE) for PLK-1
Experimental: as §1

RAF1 = target: T34, RAF1 (Homo sapiens, UniProt P04049)
T34 construct: purchased DiscoveRx KINOMEscan (scanEDGE); Thermo Fisher SelectScreen (Z'-LYTE) for PLK-1
Experimental: as §1

RET = target: T35, RET (Homo sapiens, UniProt P07949)
T35 construct: purchased DiscoveRx KINOMEscan (scanEDGE); Thermo Fisher SelectScreen (Z'-LYTE) for PLK-1
Experimental: as §1

RIOK2 = target: T36, RIOK2 (Homo sapiens, UniProt Q9BVS4)
T36 construct: purchased DiscoveRx KINOMEscan (scanEDGE); Thermo Fisher SelectScreen (Z'-LYTE) for PLK-1
Experimental: as §1

ROCK2 = target: T37, ROCK2 (Homo sapiens, UniProt O75116)
T37 construct: purchased DiscoveRx KINOMEscan (scanEDGE); Thermo Fisher SelectScreen (Z'-LYTE) for PLK-1
Experimental: as §1

[2] = target: T38, RSK2(Kin.Dom.1-N-terminal) (Homo sapiens, UniProt P51812)
T38 construct: RSK2(Kin.Dom.1-N-terminal); purchased DiscoveRx KINOMEscan (scanEDGE); Thermo Fisher SelectScreen (Z'-LYTE) for PLK-1
Experimental: as §1

TIE2 = target: T39, TIE2 (Homo sapiens, UniProt Q02763)
T39 construct: purchased DiscoveRx KINOMEscan (scanEDGE); Thermo Fisher SelectScreen (Z'-LYTE) for PLK-1
Experimental: as §1

ULK2 = target: T40, ULK2 (Homo sapiens, UniProt Q8IYT8)
T40 construct: purchased DiscoveRx (DiscoverX)
Experimental: as §1

ZAP70 = target: T41, ZAP70 (Homo sapiens, UniProt P43403)
T41 construct: purchased DiscoveRx (DiscoverX)
Experimental: as §1

p38-alpha = target: T42, p38-alpha (Homo sapiens, UniProt Q16539)
T42 construct: purchased DiscoveRx KINOMEscan (scanEDGE); Thermo Fisher SelectScreen (Z'-LYTE) for PLK-1
Experimental: as §1

T27 sequence (Q9BUB5 whole entry): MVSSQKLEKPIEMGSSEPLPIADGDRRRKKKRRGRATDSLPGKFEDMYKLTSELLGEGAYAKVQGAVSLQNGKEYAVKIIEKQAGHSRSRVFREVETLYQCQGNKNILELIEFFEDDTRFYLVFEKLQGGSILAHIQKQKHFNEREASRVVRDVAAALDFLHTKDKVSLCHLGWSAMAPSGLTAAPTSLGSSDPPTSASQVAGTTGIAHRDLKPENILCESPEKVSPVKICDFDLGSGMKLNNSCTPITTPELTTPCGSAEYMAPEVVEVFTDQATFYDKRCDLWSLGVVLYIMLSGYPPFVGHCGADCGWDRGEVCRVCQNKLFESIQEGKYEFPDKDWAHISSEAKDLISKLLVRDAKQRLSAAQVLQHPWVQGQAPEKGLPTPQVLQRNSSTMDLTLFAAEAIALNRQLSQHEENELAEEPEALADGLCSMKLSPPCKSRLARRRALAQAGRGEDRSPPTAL
T19 sequence (P49841 whole entry): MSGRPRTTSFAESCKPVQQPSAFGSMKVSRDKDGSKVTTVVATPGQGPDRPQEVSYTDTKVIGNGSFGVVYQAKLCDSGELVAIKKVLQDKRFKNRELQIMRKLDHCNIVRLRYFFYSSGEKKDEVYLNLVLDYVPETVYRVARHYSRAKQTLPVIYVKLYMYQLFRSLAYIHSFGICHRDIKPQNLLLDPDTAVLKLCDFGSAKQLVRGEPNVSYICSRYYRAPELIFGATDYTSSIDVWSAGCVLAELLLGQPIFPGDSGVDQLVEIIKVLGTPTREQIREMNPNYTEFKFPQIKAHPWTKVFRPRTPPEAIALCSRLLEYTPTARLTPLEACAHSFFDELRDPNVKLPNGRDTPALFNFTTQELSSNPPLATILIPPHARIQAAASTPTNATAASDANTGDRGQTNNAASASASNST
T15 sequence (P00533 25-1210): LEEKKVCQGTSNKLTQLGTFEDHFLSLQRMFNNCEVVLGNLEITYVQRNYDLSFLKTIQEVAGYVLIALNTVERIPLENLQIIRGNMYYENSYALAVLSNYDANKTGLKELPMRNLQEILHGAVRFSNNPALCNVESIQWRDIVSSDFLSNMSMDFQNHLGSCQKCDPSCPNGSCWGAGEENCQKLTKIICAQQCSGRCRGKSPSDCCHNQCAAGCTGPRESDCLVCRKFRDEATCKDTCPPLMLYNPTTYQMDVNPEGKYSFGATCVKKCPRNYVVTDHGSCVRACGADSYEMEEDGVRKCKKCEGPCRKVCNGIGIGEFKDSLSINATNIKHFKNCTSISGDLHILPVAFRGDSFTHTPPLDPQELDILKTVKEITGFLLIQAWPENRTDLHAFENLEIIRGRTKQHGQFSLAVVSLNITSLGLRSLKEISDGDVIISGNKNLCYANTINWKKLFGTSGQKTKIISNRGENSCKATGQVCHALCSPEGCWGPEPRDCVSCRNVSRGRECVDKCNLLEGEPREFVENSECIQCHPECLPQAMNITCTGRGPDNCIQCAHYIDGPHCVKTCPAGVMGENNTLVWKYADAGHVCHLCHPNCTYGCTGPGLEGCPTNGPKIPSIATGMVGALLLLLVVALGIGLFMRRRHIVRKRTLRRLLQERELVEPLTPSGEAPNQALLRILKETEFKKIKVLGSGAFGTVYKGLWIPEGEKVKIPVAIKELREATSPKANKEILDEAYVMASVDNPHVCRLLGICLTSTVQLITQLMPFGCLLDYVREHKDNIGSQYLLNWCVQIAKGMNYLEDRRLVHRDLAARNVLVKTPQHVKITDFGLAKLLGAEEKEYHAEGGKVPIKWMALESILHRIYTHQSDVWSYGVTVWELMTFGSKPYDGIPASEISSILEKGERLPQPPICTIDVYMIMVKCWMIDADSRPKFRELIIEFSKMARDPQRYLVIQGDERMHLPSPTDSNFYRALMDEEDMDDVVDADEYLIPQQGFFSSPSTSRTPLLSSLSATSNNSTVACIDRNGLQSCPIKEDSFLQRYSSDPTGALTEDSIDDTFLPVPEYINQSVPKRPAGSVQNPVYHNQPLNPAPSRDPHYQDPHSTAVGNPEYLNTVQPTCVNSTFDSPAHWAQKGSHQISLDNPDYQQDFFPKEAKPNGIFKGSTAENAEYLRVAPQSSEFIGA
T18 sequence (P36888 27-993): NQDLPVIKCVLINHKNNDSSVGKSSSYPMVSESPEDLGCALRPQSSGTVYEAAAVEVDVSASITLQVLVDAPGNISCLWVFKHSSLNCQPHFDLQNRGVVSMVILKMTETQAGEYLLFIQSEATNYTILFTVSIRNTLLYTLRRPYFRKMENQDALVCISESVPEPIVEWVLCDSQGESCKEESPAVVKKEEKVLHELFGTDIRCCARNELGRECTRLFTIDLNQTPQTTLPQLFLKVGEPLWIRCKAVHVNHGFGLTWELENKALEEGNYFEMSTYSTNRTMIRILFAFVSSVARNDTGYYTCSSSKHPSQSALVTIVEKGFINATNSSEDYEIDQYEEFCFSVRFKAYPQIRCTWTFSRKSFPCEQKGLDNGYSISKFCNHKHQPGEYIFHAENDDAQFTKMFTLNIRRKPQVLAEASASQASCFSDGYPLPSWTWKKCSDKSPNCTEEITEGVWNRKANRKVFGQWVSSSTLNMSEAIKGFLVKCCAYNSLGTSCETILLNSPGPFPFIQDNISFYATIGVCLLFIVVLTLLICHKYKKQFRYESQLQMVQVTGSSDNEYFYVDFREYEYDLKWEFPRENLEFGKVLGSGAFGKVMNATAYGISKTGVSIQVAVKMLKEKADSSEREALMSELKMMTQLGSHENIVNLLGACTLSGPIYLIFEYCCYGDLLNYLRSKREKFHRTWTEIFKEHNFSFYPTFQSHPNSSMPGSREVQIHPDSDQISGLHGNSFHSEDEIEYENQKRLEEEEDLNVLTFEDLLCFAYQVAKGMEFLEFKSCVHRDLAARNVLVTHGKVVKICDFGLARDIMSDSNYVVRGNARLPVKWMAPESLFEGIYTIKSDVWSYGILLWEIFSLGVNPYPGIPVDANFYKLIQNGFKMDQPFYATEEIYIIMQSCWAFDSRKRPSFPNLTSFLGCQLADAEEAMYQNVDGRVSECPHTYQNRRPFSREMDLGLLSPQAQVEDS
T24 sequence (Q15831 whole entry): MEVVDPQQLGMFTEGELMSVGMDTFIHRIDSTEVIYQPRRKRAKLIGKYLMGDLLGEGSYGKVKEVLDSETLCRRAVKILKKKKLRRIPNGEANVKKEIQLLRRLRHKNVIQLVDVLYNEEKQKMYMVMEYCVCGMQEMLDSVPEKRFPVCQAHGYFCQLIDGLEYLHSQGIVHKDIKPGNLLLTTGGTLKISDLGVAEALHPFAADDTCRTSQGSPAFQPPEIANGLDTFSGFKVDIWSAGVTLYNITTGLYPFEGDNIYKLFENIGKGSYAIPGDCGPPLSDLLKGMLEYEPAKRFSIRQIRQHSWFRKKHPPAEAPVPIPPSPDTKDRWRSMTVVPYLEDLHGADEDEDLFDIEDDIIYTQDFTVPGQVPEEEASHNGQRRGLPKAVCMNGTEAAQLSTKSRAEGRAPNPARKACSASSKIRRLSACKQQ
T4 sequence (O14965 whole entry): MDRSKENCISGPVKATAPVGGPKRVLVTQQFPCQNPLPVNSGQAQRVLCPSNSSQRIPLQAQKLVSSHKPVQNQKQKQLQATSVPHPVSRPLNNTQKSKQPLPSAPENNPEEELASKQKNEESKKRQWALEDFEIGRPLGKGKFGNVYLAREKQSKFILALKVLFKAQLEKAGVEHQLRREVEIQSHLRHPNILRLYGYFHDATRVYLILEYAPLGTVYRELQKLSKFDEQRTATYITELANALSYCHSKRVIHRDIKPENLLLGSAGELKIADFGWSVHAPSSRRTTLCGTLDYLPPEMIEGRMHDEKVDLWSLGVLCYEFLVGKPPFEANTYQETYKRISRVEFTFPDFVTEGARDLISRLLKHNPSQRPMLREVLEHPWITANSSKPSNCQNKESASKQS
T13 sequence (P78368 whole entry): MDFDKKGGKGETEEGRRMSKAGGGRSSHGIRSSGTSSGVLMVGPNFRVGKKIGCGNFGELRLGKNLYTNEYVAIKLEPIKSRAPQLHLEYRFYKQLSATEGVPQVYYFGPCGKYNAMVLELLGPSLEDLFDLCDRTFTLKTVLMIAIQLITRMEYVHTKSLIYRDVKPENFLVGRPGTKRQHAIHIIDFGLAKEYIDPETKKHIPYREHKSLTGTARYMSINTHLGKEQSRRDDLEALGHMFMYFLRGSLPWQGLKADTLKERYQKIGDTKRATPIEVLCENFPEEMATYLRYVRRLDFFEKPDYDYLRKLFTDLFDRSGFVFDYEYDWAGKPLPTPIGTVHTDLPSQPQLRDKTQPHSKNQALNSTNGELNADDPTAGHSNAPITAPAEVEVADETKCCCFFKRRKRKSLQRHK
T29 sequence (Q00536 whole entry): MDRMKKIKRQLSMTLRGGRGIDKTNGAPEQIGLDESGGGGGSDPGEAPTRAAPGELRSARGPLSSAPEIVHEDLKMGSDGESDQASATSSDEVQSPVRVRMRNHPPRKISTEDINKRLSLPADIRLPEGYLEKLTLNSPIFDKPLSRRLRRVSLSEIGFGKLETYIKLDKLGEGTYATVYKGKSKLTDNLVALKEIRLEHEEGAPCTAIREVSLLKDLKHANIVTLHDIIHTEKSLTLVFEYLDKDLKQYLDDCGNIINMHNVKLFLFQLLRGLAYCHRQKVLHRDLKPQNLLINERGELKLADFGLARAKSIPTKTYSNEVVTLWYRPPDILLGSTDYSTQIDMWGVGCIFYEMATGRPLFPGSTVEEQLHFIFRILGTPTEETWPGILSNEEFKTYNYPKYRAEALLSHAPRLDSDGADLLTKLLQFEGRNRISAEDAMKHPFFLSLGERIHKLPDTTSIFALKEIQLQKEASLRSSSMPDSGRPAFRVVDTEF

remaining binding at 1 µM [1]: 100%
remaining binding at 1 µM (ABL1-nonphosphorylated): 84%
remaining binding at 1 µM (ADCK3): 100%
remaining binding at 1 µM (AURKA): 99%
remaining binding at 1 µM (AURKB): 86%
remaining binding at 1 µM (AXL): 98%
remaining binding at 1 µM (BRAF): 100%
remaining binding at 1 µM (BRAF(V600E)): 98%
remaining binding at 1 µM (CDK11): 93%
remaining binding at 1 µM (CDK2): 100%
remaining binding at 1 µM (CDK7): 88%
remaining binding at 1 µM (CDK9): 100%
remaining binding at 1 µM (CSNK1G2): 100%
remaining binding at 1 µM (DYRK1B): 63%
remaining binding at 1 µM (EGFR): 86%
remaining binding at 1 µM (ERK1): 100%
remaining binding at 1 µM (FGFR2): 100%
remaining binding at 1 µM (FLT3): 100%
remaining binding at 1 µM (GSK3B): 82%
remaining binding at 1 µM (JNK3): 39%
remaining binding at 1 µM (KIT): 100%
remaining binding at 1 µM (KIT(D816V)): 100%
remaining binding at 1 µM (KIT(V559D,T670I)): 100%
remaining binding at 1 µM (LKB1): 82%
remaining binding at 1 µM (MAP3K4): 92%
remaining binding at 1 µM (MAPKAPK2): 100%
remaining binding at 1 µM (MKNK1): 100%
remaining binding at 1 µM (MLK1): 100%
remaining binding at 1 µM (PCTK1): 95%
remaining binding at 1 µM (PDGFRA): 96%
remaining binding at 1 µM (PIK3CG): 98%
remaining binding at 1 µM (PIM3): 100%
remaining binding at 1 µM (PRKCE): 100%
remaining binding at 1 µM (RAF1): 100%
remaining binding at 1 µM (RET): 99%
remaining binding at 1 µM (RIOK2): 74%
remaining binding at 1 µM (ROCK2): 100%
remaining binding at 1 µM [2]: 59%
remaining binding at 1 µM (TIE2): 99%
remaining binding at 1 µM (ULK2): 64%
remaining binding at 1 µM (ZAP70): 94%
remaining binding at 1 µM (p38-alpha): 92%
SMILES: CCOc1cc(C2CCN(C)CC2)ccc1Nc1ncc2c(n1)N(Cc1cc(C)cs1)[C@H](CC)C(=O)N2C [16k, (R)-2-((2-Ethoxy-4-(1-methylpiperidin-4-yl)phenyl)amino)-7-ethyl-5-methyl-8-((4-methylthiophen-2-yl)methyl)-7,8-dihydropteridin-6(5H)-one]
